Where “and” joins values, the source holds several entries; their conditions need not be identical. Equal entries are not always repeated.
System: Xenopus laevis tadpoles
Assay: Behavioral test: locomotion of free-swimming tadpoles under light cycles
Format: in vivo
Details: for reduction in locomotor activity in the dark vs baseline / Normalized travelled distance by tadpoles (/baseline/control), mean: 5 µM; for reduction in locomotor activity in the dark vs baseline: 45 min incubation; for Normalized travelled distance by tadpoles (/baseline): per well (mean of 3 tadpoles)
Protocol: In our behavioral assay, tadpoles were placed in groups of three animals per well of a 12-well plate allowing them to swim freely. Their baseline locomotion was recorded for 3 min in the dark, after which they were incubated for 45 min in a solution containing either 0.1% DMSO (control) or 5 μM OptoNAM-3 (refer to Methods and Figure S5A for details). For each condition (control and OptoNAM-3), tadpole locomotion was recorded for 3 min in the dark, followed by cycles of 1 min illumination at 365 nm and then 550 nm, and interspersed with 3 min rest periods to avoid bias due to a poststimulation refractory period[51],[56] (Figure S5A). We also conducted the same protocol using 460/550 nm light cycles, as OptoNAM-3 can switch from the trans to cis state upon exposure to blue light at 460 nm when pre-equilibrated on cells (see above). The tadpole traveled distance was calculated from precise position coordinates of tadpole body parts across frames, assessed by automatic position multianimal tracking using the open-source program DeepLabCut.[57],[58]Xenopus laevis tadpoles present nonvisual photoreceptors that generate a photomotor response characterized by an increase of activity upon UV light illumination.[59] We indeed observed an increase in tadpole locomotion with UV and blue light compared to 550 nm light in the control condition (∼1.5-fold, Figures 6A,B and S5B,C, gray points). The photodependent effect of OptoNAM-3 on locomotion was therefore quantified by calculating the traveled distance normalized twice: by the tadpole baseline locomotion (to decrease interindividual variability linked to the locomotion speed) and, for each condition, by the locomotion of the control group (to remove the nonspecific effect of UV or blue light). […] Their locomotion could be restored to baseline activity with UV or blue light and inhibited again by 550 nm light for two cycles (Figure 6C,D and Movies S1 and S2). Consequently, OptoNAM-3 enabled fast and reversible control of tadpole locomotion using light. In addition, the compound red-shifted properties observed in vitro were conserved in vivo. OptoNAM-3 therefore holds great promise to photocontrol native GluN2B-NMDARs with the high biocompatibility of red-shifted photoswitches.[29],[31]
Xenopus laevis embryos were obtained from the European Xenopus Resource Centre (EXRC, Portsmouth, UK) or TEFOR Paris Sackay (Saclay, France), maintained in Modified Barth’s Saline (MBS) 0.1× (pH adjusted to 7.8 with NaOH), and supplemented with 10 μg/mL of gentamicin, in 10 cm Petri dishes with a maximum of 50 tadpoles per dish. The embryos were stored at 18 °C until they reached stage 49 (12–14 days postfertilization).[86] Experiments on Xenopus tadpoles were performed according to European Union guidelines (project authorization Apafis #44976–2023092616413977)
For the experiments (see Figure S5A), stage 49 X. laevis tadpoles were placed in the center of a 12-well plate at a density of three animals per well in 0.1× MBS. The 12-well plate was covered with a 3D-printed dome equipped with a liquid guide (15 cm) connected to a multichannel LED delivery system (CoolLed pE-4000) at the top. The plate was positioned on optical cast plastic infrared filters, which allowed only wavelengths above 650 nm to pass, and red light (770 nm at 15% intensity) was continuously applied during recording to enable video recording in the dark. […] Subsequently, the tadpoles were incubated in the dark for 30 min in a 60 × 15 mm Petri dish containing 5 mL of either the vehicle (0.1% DMSO in MBS 0.1×) or OptoNAM-3 solution (5 μM in MBS 0.1×) to facilitate drug penetration. Afterward, the tadpoles were transferred back to the 12-well plate, which contained either the vehicle solution or OptoNAM-3 (5 μM), and habituation to red light was performed again for 15 min. […]

[1] = Sup. Fig. 5B, UV/green cycles, second data block (c27-c50), raw

In the case of `c1ccc(/N=N/c2ccc(CCNc3ccncc3)cc2)cc1` [OptoNAM-3, (E)-N-(4-(Phenyldiazenyl)phenethyl)pyridin-4-amine], the “reduction in locomotor activity in the dark vs baseline” value (UV/visible cycle protocol group) is reported as 35%, the “reduction in locomotor activity in the dark vs baseline” value (blue/green cycle protocol group) is reported as 50% and the “Normalized travelled distance by tadpoles (/baseline/control), mean” value (Fig 6C, 365 nm (1), UV/green light cycle experiment) is reported as 1.089. For the same compound, the “Normalized travelled distance by tadpoles (/baseline/control), mean” value (Fig 6C, 365 nm (2), UV/green light cycle experiment) was 0.883, the “Normalized travelled distance by tadpoles (/baseline/control), mean” value (Fig 6C, 550 nm (1), UV/green light cycle experiment) was 0.484 and the “Normalized travelled distance by tadpoles (/baseline/control), mean” value (Fig 6C, 550 nm (2), UV/green light cycle experiment) was 0.221. For the same compound, the “Normalized travelled distance by tadpoles (/baseline/control), mean” value (Fig 6C, dark, UV/green light cycle experiment) was 0.649, the “Normalized travelled distance by tadpoles (/baseline/control), mean” value (Fig 6D, 460 nm (1), blue/green light cycle experiment) was 2.548 and the “Normalized travelled distance by tadpoles (/baseline/control), mean” value (Fig 6D, 460 nm (2), blue/green light cycle experiment) was 2.278. The “Normalized travelled distance by tadpoles (/baseline/control), mean” value (Fig 6D, 550 nm (1), blue/green light cycle experiment) was 0.587, the “Normalized travelled distance by tadpoles (/baseline/control), mean” value (Fig 6D, 550 nm (2), blue/green light cycle experiment) was 0.462 and the “Normalized travelled distance by tadpoles (/baseline/control), mean” value (Fig 6D, dark, blue/green light cycle experiment) was 0.509. The “Distance in mm, well mean of 3 tadpoles, uv 1 min” value (Sup. Fig. 5B, UV/green cycles, first data block (c1-c24), raw) was 543.756 mm and 730.486 mm and 588.764 mm and 724.010 mm and 734.699 mm and 651.720 mm and 525.360 mm and 469.552 mm, the “Distance in mm, well mean of 3 tadpoles, green2 1 min” value [1] was 28.734 mm and 47.149 mm and 41.068 mm and 52.900 mm and 46.164 mm and 30.050 mm and 28.925 mm and 43.119 mm and the “Distance in mm, well mean of 3 tadpoles, uv 1 min” value [1] was 636.734 mm and 582.355 mm and 684.728 mm and 679.263 mm and 728.479 mm and 513.366 mm and 700.914 mm and 476.462 mm. For the same compound, the “Normalized travelled distance by tadpoles (/baseline), single well” value (Sup. Fig. 5B, 365 nm (1), individual wells) was 1.393 and 3.082 and 2.491 and 2.557 and 3.849 and 6.596 and 1.808 and 1.431 and 6.280 and 5.411 and 9.003 and 6.422 and 6.492, the “Normalized travelled distance by tadpoles (/baseline), mean” value (Sup. Fig. 5B, 365 nm (1), mean of 16 wells) was 4.878 and the “Normalized travelled distance by tadpoles (/baseline), single well” value (Sup. Fig. 5B, 365 nm (2), individual wells) was 1.002 and 2.077 and 1.181 and 1.514 and 2.542 and 5.415 and 1.765 and 1.460 and 5.497 and 4.718 and 10.726 and 5.196 and 4.515. For the same compound, the “Normalized travelled distance by tadpoles (/baseline), mean” value (Sup. Fig. 5B, 365 nm (2), mean of 16 wells) was 4.635, the “Normalized travelled distance by tadpoles (/baseline), single well” value (Sup. Fig. 5B, 550 nm (1), individual wells) was 0.458 and 1.858 and 0.896 and 0.456 and 0.161 and 0.143 and 0.389 and 0.051 and 0.457 and 0.356 and 0.468 and 0.574 and 0.522 and the “Normalized travelled distance by tadpoles (/baseline), mean” value (Sup. Fig. 5B, 550 nm (1), mean of 16 wells) was 0.561. The “Normalized travelled distance by tadpoles (/baseline), single well” value (Sup. Fig. 5B, 550 nm (2), individual wells) was 0.073 and 0.057 and 0.075 and 0.047 and 0.119 and 0.187 and 0.194 and 0.072 and 0.283 and 0.438 and 0.540 and 0.500 and 0.411, the “Normalized travelled distance by tadpoles (/baseline), mean” value (Sup. Fig. 5B, 550 nm (2), mean of 16 wells) was 0.274 and the “Normalized travelled distance by tadpoles (/baseline), single well” value (Sup. Fig. 5B, dark, individual wells (each well is the mean of 3 tadpole)) was 0.095 and 0.145 and 0.255 and 0.231 and 0.246 and 0.190 and 0.129 and 0.073 and 0.384 and 0.405 and 0.424 and 0.476 and 0.614. The “Normalized travelled distance by tadpoles (/baseline), mean” value (Sup. Fig. 5B, dark, mean of 16 wells (each well is the mean of 3 tadpole)) was 0.393, the “Normalized travelled distance by tadpoles (/baseline)” value (Sup. Fig. 5B, dark) was 0.643 and 0.955 and 1.031 and the “Normalized travelled distance by tadpoles (/baeline/control), single well” value (Sup. Fig. 5C, 460 nm (1), individual wells) was 1.914 and 1.376 and 8.550 and 2.480 and 4.315 and 7.810 and 5.706 and 5.046 and 11.224 and 1.065 and 13.799 and 8.327 and 1.491. The “Normalized travelled distance by tadpoles (/baeline/control), mean” value (Sup. Fig. 5C, 460 nm (1), mean of 17 wells) was 6.279, the “Normalized travelled distance by tadpoles (/baeline/control), single well” value (Sup. Fig. 5C, 460 nm (2), individual wells) was 2.036 and 1.506 and 10.137 and 2.268 and 4.306 and 11.041 and 6.016 and 15.287 and 9.339 and 1.297 and 11.889 and 4.687 and 3.893 and the “Normalized travelled distance by tadpoles (/baeline/control), mean” value (Sup. Fig. 5C, 460 nm (2), mean of 17 wells) was 6.476. For the same compound, the “Normalized travelled distance by tadpoles (/baseline)” value (Sup. Fig. 5C, 460 nm (2)) was 8.083 and 4.823 and 6.568 and 6.920, the “Normalized travelled distance by tadpoles (/baeline/control), single well” value (Sup. Fig. 5C, 550 nm (1), individual wells) was 0.384 and 0.350 and 1.155 and 0.578 and 0.301 and 1.159 and 2.310 and 0.844 and 0.446 and 0.287 and 2.947 and 0.796 and 0.259 and the “Normalized travelled distance by tadpoles (/baeline/control), mean” value (Sup. Fig. 5C, 550 nm (1), mean of 17 wells) was 0.899. The “Normalized travelled distance by tadpoles (/baeline/control), single well” value (Sup. Fig. 5C, 550 nm (2), individual wells) was 0.201 and 0.140 and 0.631 and 0.384 and 0.385 and 0.939 and 0.448 and 0.727 and 1.019 and 0.143 and 0.892 and 1.756 and 0.609, the “Normalized travelled distance by tadpoles (/baeline/control), mean” value (Sup. Fig. 5C, 550 nm (2), mean of 17 wells) was 0.702 and the “Normalized travelled distance by tadpoles (/baseline)” value (Sup. Fig. 5C, 550 nm (2)) was 1.231 and 0.815 and 0.780 and 0.842. For the same compound, the “Normalized travelled distance by tadpoles (/baeline/control), single well” value (Sup. Fig. 5C, dark, individual wells (each well is the mean of 3 tadpole)) was 0.118 and 0.080 and 0.825 and 0.228 and 0.352 and 1.330 and 0.587 and 0.877 and 0.773 and 0.144 and 0.553 and 0.717 and 0.589, the “Normalized travelled distance by tadpoles (/baeline/control), mean” value (Sup. Fig. 5C, dark, mean of 17 wells (each well is the mean of 3 tadpole)) was 0.520 and the “Normalized travelled distance by tadpoles (/baseline)” value (Sup. Fig. 5C, dark) was 0.453 and 0.357 and 0.524 and 0.331.

From paper PMC11413854, “Reversible Control of Native GluN2B-Containing NMDA Receptors with Visible Light” (ACS Chemical Neuroscience, 2024)
